Here are results for 16 compounds from patent US20250109140A1, “5-[5-(PIPERIDIN-4-YL)THIENO[3,2-C]PYRAZOL-2-YL]INDAZOLE DERIVATIVES AND RELATED COMPOUNDS AS MODULATORS FOR SPLICING NUCLEIC ACIDS AND FOR THE TREATMENT OF PROLIFERATIVE DISEASES” (REMIX THERAPUTICS INC., priority 2022, published 2025).

Read-outs that look alike come from different tables or passages of the source.

Type in all cases: cell-based
The subject of one assay is SMN2 mRNA. As to the kind of experiment: Splicing RT-qPCR gene panel, SMN2 canonical junction (CJ) mRNA. To be noted: Homo sapiens; Table 8; larger gene panel, decrease in CJ mRNA levels. A digest of the protocol: (§1)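 A673/K562; 11-pt 3-fold dil., top 10 uM final, ≤0.25% DMSO; 24 h, 37 °C, 5% CO2. Lysis, then RT-qPCR of CJ/AJ isoforms, ≥duplicate. ΔCt vs housekeeper (GAPDH/GUSB/PPIA), ΔΔCt vs DMSO, RQ = 2^(−ΔΔCt), expressed as % response.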
For orientation: In qPCR the cycle at which signal appears reflects the starting amount.

Another assay has as its system MYB mRNA. As to the kind of experiment: Splicing RT-qPCR assay, MYB canonical (CJ) and alternative (AJ) junction mRNA. The note with it: Homo sapiens; for EC50: AC50 = 50% response in AJ mRNA increase. A digest of the protocol:
as §1

The subject of the next assay is HTT mRNA. As to the kind of experiment: Splicing RT-qPCR assay, HTT canonical (CJ) and alternative (AJ) junction mRNA. The note with it: Homo sapiens; for EC50: AC50 = 50% response in AJ mRNA increase. The procedure, abridged:
as §1

Another assay deals with Target C mRNA. As to the kind of experiment: Splicing RT-qPCR gene panel, Target C canonical junction (CJ) mRNA. The note with it: Homo sapiens; Table 8; larger gene panel, decrease in CJ mRNA levels. A digest of the protocol:
as §1

The mark [1] stands for this setting: Table 7, RT-qPCR, A673 or K562 cells, 24 hours treatment.
The mark [2] stands for this setting: Table 7, IC50 = 50% response in CJ mRNA decrease, RT-qPCR, A673 or K562 cells, 24 hours treatment, read-out: MYB CJ.
[3] abbreviates: Table 8, larger gene panel, decrease in CJ mRNA levels, read-out: MYB CJ IC50.
Setting [4] is: Table 7, IC50 = 50% response in CJ mRNA decrease, RT-qPCR, A673 or K562 cells, 24 hours treatment, read-out: HTT CJ.
[5] abbreviates: Table 8, larger gene panel, decrease in CJ mRNA levels, read-out: HTT CJ IC50.

As for `Cc1cn2nc(-c3nc4sc(C5CNC5)cc4s3)cc(C)c2n1` [Compound 235, 3-(2-{2,8-dimethylimidazo[1,2-b]pyridazin-6-yl}thieno[2,3-d][1,3]thiazol-5-yl) azetidine], the IC50 fell in the range of 0.1 to 1 µM with SMN2 mRNA; 1 to 10 µM in the assay with MYB mRNA (setting [2]); 1 to 10 µM with MYB mRNA (setting [3]); 1 to 10 µM in the assay with HTT mRNA (setting [4]); 1 to 10 µM in the assay with HTT mRNA (setting [5]); 1 to 10 µM with Target C mRNA. Also, the 50% effective concentration (EC50) in the assay on MYB mRNA (setting [1]) and with HTT mRNA (setting [1]) was 1 to 10 µM each time.
Regarding `Cn1cc2cc(-c3nc4sc(C5(O)CCNCC5)cc4s3)cc(F)c2n1` [Compound 236, 4-[2-(7-fluoro-2-methylindazol-5-yl)thieno[2,3-d][1,3]thiazol-5-yl]piperidin-4-ol], the IC50 in the assay with SMN2 mRNA was in the range of 0.1 to 1 µM; in the assay with MYB mRNA (setting [2]), 0.1 to 1 µM; in the assay with MYB mRNA (setting [3]), 1 to 10 µM; with HTT mRNA (setting [4]), 0.1 to 1 µM; in the assay on HTT mRNA (setting [5]), 1 to 10 µM; with Target C mRNA it was 1 to 10 µM. The EC50 with MYB mRNA (setting [1]) and in the assay with HTT mRNA (setting [1]) was 1 to 10 µM in each case.
As to `COc1c(-c2nc3sc(C4CCNCC4)cc3s2)cc(F)c2nn(C)cc12` [Compound 237, 7-fluoro-4-methoxy-2-methyl-5-[5-(piperidin-4-yl)thieno[2,3-d][1,3]thiazol-2-yl]indazole], the IC50 was greater than 10 µM in the assay on SMN2 mRNA; 1 to 10 µM with MYB mRNA (setting [2]); greater than 10 µM with MYB mRNA (setting [3]); greater than 10 µM in the assay with HTT mRNA (setting [4]); greater than 10 µM with HTT mRNA (setting [5]); greater than 10 µM with Target C mRNA. For the same compound, the EC50 in the assay with MYB mRNA (setting [1]) and in the assay on HTT mRNA (setting [1]) was greater than 10 µM each time.
With `Cc1cc(-c2nc3sc(C4CCNCC4)cc3s2)cc2cn(C)nc12` [Compound 238, 2,7-dimethyl-5-[5-(piperidin-4-yl)thieno[2,3-d][1,3]thiazol-2-yl]indazole], the IC50 in the assay with SMN2 mRNA is less than 0.1 µM; with MYB mRNA (setting [2]), 0.1 to 1 µM; in the assay on MYB mRNA (setting [3]), 0.1 to 1 µM; in the assay on HTT mRNA (setting [4]) it was less than 0.1 µM; in the assay on HTT mRNA (setting [5]), less than 0.1 µM; in the assay on Target C mRNA it was 0.1 to 1 µM. Moreover, the EC50 (commonly the concentration giving half of the maximal effect) is 0.1 to 1 µM in the assay on MYB mRNA (setting [1]) and less than 0.1 µM in the assay with HTT mRNA (setting [1]).
Take `Cc1cn2cc(-c3nc4sc(C5CCNCC5)cc4s3)nc2c(C)n1` [Compound 239, 4-(2-{6,8-dimethylimidazo[1,2-a]pyrazin-2-yl}thieno[2,3-d][1,3]thiazol-5-yl)piperidine]: the IC50 is 0.1 to 1 µM in the assay with SMN2 mRNA; 1 to 10 µM in the assay on MYB mRNA (setting [2]); 1 to 10 µM with MYB mRNA (setting [3]); 0.1 to 1 µM with HTT mRNA (setting [4]); 1 to 10 µM in the assay on HTT mRNA (setting [5]); 1 to 10 µM in the assay with Target C mRNA. The half-maximal effective concentration (EC50) in the assay with MYB mRNA (setting [1]) and with HTT mRNA (setting [1]) was 1 to 10 µM each time.
Consider `Cn1cc2cc(-c3nc4sc([C@H]5CCNC[C@H]5F)cc4s3)cc(F)c2n1` [Compound 240, 7-fluoro-5-{5-[(3S,4S)-3-fluoropiperidin-4-yl]thieno[2,3-d][1,3]thiazol-2-yl}-2-methylindazole], for which the IC50 is 0.1 to 1 µM with SMN2 mRNA; 1 to 10 µM with MYB mRNA (setting [2]); 1 to 10 µM in the assay with MYB mRNA (setting [3]); 1 to 10 µM with HTT mRNA (setting [4]); 1 to 10 µM in the assay on HTT mRNA (setting [5]); greater than 10 µM in the assay with Target C mRNA. Also, the concentration giving a half-maximal response (EC50) in the assay with MYB mRNA (setting [1]) and with HTT mRNA (setting [1]) was 1 to 10 µM each time.
Consider `COc1c(-c2nc3sc(C4CCNCC4)cc3s2)cc2cn(C)nc2c1F` [Compound 242, 7-fluoro-6-methoxy-2-methyl-5-[5-(piperidin-4-yl)thieno[2,3-d][1,3]thiazol-2-yl]indazole], for which the IC50 in the assay on SMN2 mRNA, with MYB mRNA (setting [2]), in the assay with MYB mRNA (setting [3]), with HTT mRNA (setting [4]), in the assay on HTT mRNA (setting [5]) and in the assay on Target C mRNA was less than 0.1 µM throughout. Besides, the EC50 in the assay on MYB mRNA (setting [1]) and with HTT mRNA (setting [1]) was less than 0.1 µM each time.
On to `COc1c(-c2cc3cn(C4CCNCC4)nc3s2)cc2c[nH]nc2c1C` [Compound 248], for which the IC50 with SMN2 mRNA, in the assay on MYB mRNA (setting [2]), with MYB mRNA (setting [3]), with HTT mRNA (setting [4]), in the assay on HTT mRNA (setting [5]) and in the assay on Target C mRNA was greater than 10 µM in each case. Also, the EC50 in the assay on MYB mRNA (setting [1]) and with HTT mRNA (setting [1]) was greater than 10 µM each time.
In the case of `Cc1cn2cc(-c3nc4sc(C5CCNCC5)cc4s3)nc(C)c2n1` [Compound 270, 4-(2-{2,8-dimethylimidazo[1,2-a]pyrazin-6-yl}thieno[2,3-d][1,3]thiazol-5-yl)piperidine], the IC50 is less than 0.1 µM with SMN2 mRNA; 0.1 to 1 µM with MYB mRNA (setting [2]); 1 to 10 µM in the assay with MYB mRNA (setting [3]); less than 0.1 µM in the assay with HTT mRNA (setting [4]); 0.1 to 1 µM in the assay on HTT mRNA (setting [5]); 0.1 to 1 µM in the assay on Target C mRNA. In addition, the concentration for a half-maximal effect (EC50) in the assay with MYB mRNA (setting [1]) is 1 to 10 µM; with HTT mRNA (setting [1]), 0.1 to 1 µM.
For the compound `Cc1cn2cc(-c3nc4sc(C5CCNCC5)cc4s3)ccc2n1` [Compound 271, 4-(2-{2-methylimidazo[1,2-a]pyridin-6-yl}thieno[2,3-d][1,3]thiazol-5-yl)piperidine], the IC50 in the assay with SMN2 mRNA was less than 0.1 µM; with MYB mRNA (setting [2]) it was 0.1 to 1 µM; with MYB mRNA (setting [3]) it was 0.1 to 1 µM; in the assay with HTT mRNA (setting [4]), less than 0.1 µM; in the assay on HTT mRNA (setting [5]) it was 0.1 to 1 µM; with Target C mRNA it was 0.1 to 1 µM. Besides, the EC50 in the assay on MYB mRNA (setting [1]) and with HTT mRNA (setting [1]) was 0.1 to 1 µM throughout.
`Cn1cc2cc(N3Cc4cc(C5CCNCC5)sc4C3=O)cc(F)c2n1` [Compound 1118, 5-(7-fluoro-2-methylindazol-5-yl)-2-(piperidin-4-yl)-4H-thieno[2,3-c]pyrrol-6-one]: the IC50 with SMN2 mRNA was less than 0.1 µM; in the assay with MYB mRNA (setting [2]), 1 to 10 µM; in the assay with MYB mRNA (setting [3]) it was 1 to 10 µM; in the assay on HTT mRNA (setting [4]), 0.1 to 1 µM; with HTT mRNA (setting [5]), 0.1 to 1 µM; with Target C mRNA, 1 to 10 µM. Also, the EC50 in the assay with MYB mRNA (setting [1]) was 1 to 10 µM; in the assay on HTT mRNA (setting [1]), 0.1 to 1 µM.
Turning to `Cn1cc2cc(N3Cc4sc(C5CCNCC5)cc4C3=O)cc(F)c2n1` [Compound 1119, 5-(7-fluoro-2-methylindazol-5-yl)-2-(piperidin-4-yl)-6H-thieno[2,3-c]pyrrol-4-one], the IC50 in the assay with SMN2 mRNA is less than 0.1 µM; in the assay with MYB mRNA (setting [2]), 0.1 to 1 µM; in the assay with MYB mRNA (setting [3]), 0.1 to 1 µM; in the assay with HTT mRNA (setting [4]), less than 0.1 µM; in the assay on HTT mRNA (setting [5]), less than 0.1 µM; in the assay on Target C mRNA, 0.1 to 1 µM. Further, the results for the EC50 in the assay on MYB mRNA (setting [1]) and with HTT mRNA (setting [1]) were 0.1 to 1 µM and less than 0.1 µM, respectively.
As to `Cn1cc2cc(N3Cc4sc(C5CCNCC5)cc4C3=O)ccc2n1` [Compound 1120], the IC50 was in the range of 0.1 to 1 µM in the assay with SMN2 mRNA; 1 to 10 µM in the assay with MYB mRNA (setting [2]); 1 to 10 µM with MYB mRNA (setting [3]); 1 to 10 µM in the assay on HTT mRNA (setting [4]); 1 to 10 µM in the assay on HTT mRNA (setting [5]); 1 to 10 µM in the assay on Target C mRNA. Also, the half-maximal effective concentration (EC50) with MYB mRNA (setting [1]) and in the assay with HTT mRNA (setting [1]) was 1 to 10 µM each time.
As to `Cc1cc(N2Cc3sc(C4CCNCC4)cc3C2=O)cc2cn(C)nc12` [Compound 1122], the IC50 in the assay with SMN2 mRNA, in the assay on MYB mRNA (setting [2]), with MYB mRNA (setting [3]), with HTT mRNA (setting [4]), with HTT mRNA (setting [5]) and with Target C mRNA was 0.1 to 1 µM in each case. Besides, the half-maximal effective concentration (EC50) in the assay with MYB mRNA (setting [1]) and with HTT mRNA (setting [1]) was 0.1 to 1 µM each time.
As for `Cn1cc2cc(N3Cc4sc(C5CCNCC5)cc4C3=O)ncc2n1` [Compound 1125], the IC50 with SMN2 mRNA was in the range of 0.1 to 1 µM; in the assay on MYB mRNA (setting [2]), 1 to 10 µM; with MYB mRNA (setting [3]), 1 to 10 µM; with HTT mRNA (setting [4]) it was 1 to 10 µM; in the assay on HTT mRNA (setting [5]), 1 to 10 µM; with Target C mRNA it was 1 to 10 µM. Moreover, the half-maximal effective concentration (EC50) in the assay on MYB mRNA (setting [1]) and in the assay on HTT mRNA (setting [1]) was 1 to 10 µM in each case.
On to `Cc1cn2nc(N3Cc4sc(C5CCNCC5)cc4C3=O)cc(C)c2n1` [Compound 1127], for which the IC50 is less than 0.1 µM in the assay on SMN2 mRNA; 0.1 to 1 µM in the assay on MYB mRNA (setting [2]); 0.1 to 1 µM with MYB mRNA (setting [3]); less than 0.1 µM in the assay on HTT mRNA (setting [4]); less than 0.1 µM in the assay with HTT mRNA (setting [5]); 0.1 to 1 µM in the assay with Target C mRNA. Moreover, the half-maximal effective concentration (EC50) was 0.1 to 1 µM with MYB mRNA (setting [1]) and less than 0.1 µM in the assay on HTT mRNA (setting [1]).
